The subject of data set [1] is HT-1080. As to the kind of experiment: Ferroptosis inhibition, cell viability assay (CellTiter-Glo). The data set is classed as cell-based, Human. The note with it: for IC50: Homo sapiens; for cellular efficacy/toxicity window: cytotoxic IC50 versus ferroptosis inhibition IC50, 1080 min. As to the method: Cell lines: Human fibrosarcoma cell line HT-1080 and immortalized Mouse Embryonic Fibroblasts (MEF). MEFs were a gift from Daniel Krappmann, HT-1080 were purchased from ATCC and both cell lines were grown in Dulbecco's Modified Eagle's medium (Thermo Fisher Scientific, 41966-029) supplemented with 10% fetal bovine serum (FBS, Thermo Fisher Scientific), 1% Penicillin-Streptomycin (Thermo Fisher Scientific) and 1% nonessential amino acids (MEM NEAA, Thermo Fisher Scientific). Cells were grown at 37° C. and 5% CO2.
HT-1080 were seeded into 384-well plates (CulturPlates, PerkinElmer) with a density of 750 cells per well. After 24 h of growth, cells were treated with 10 or 12-point serial dilutions of compounds in indicated concentrations for 18 h. Viability was detected by using CellTiter-Glo® 2.0 Regent (Promega) according to the manufacturer's instruction and luminescence was read out in an EnVison 2104 Multilabel plate reader (PerkinElmer).

Data set [2] in a line: Cytotoxicity, cell viability assay. Type of data set: cell-based, Human. The note with it: human, ht-1080 cells. As to the method:
After 24 h of growth, cells were treated with 10 or 12-point serial dilutions of compounds in indicated concentrations for 18 h.

Where [3] appears, read: HT-1080, based on the assays of example 1, read-out: IC50 (Ferroptosis inhibition).
[4] abbreviates: * = signal quenching at higher concentration, toxicity might be less than indicated, read-out: cytotoxic IC50.
[5] abbreviates: HT-1080, read-out: IC50 (Ferroptosis inhibition).

One may read the IC50 as the concentration needed to halve the response being measured.

Molecules are shown by their SMILES. Read-outs that look alike come from different tables or passages of the source.

For the compound `O=C1C=C(Nc2ccccc2C(=O)O)C(=O)C=C1Nc1ccccc1C(=O)O` [QFerr26, 2,2-(3,6-dioxo-1,4-cyclohexadiene-1,4-diyl-diimino)dibenzoic acid], the IC50 in data set [1] (setting [3]) was over 100000 nM. In data set [2] (setting [4]), the CC50 at 18 h is 35.4 µM.
For the compound `CC(C)=CC[C@@H](O)C1=CC(=O)c2c(O)ccc(O)c2C1=O` [iQFerr03, Shikonin], the IC50 in data set [1] (setting [5]) is over 1000 nM. In addition, the CC50 at 18 h in data set [2] (setting [4]) came to 0.269 µM.
In the same order, the values of `CC(C)=CC[C@H](O)C1=CC(=O)c2c(O)ccc(O)c2C1=O` [iQFerr04, Alkannin] are over 1000 nM and 0.573 µM.
`CC(C)=CCCC1=CC(=O)c2c(O)ccc(O)c2C1=O` [iQFerr05, Deoxyshikonin]: the IC50 in data set [1] (setting [5]) was found to be 287 nM. In data set [1], the cellular efficacy/toxicity window was 6-fold. In data set [2] (setting [4]), the CC50 at 18 h was found to be 1.62 µM.
Take `COC1=C(OC)C(=O)C(CC=C(C)C)=C(C)C1=O` [iQFerr07, Coenzyme Q1]: the IC50 in data set [1] (setting [3]) was determined as 30 nM. In addition, the cellular efficacy/toxicity window in data set [1] is 333-fold. For the same compound, the CC50 at 18 h in data set [2] (setting [4]) was 10 µM.
`O=C(O)c1ccc2c(c1)C(=O)c1ccccc1C2=O` [iQFerr08, Anthraquinone-2-carboxyclic acid]: the IC50 in data set [1] (setting [5]) stood at 13000 nM. Moreover, in data set [2], the CC50 at 18 h is over 100 µM.
Consider `CC(=O)c1cccc(NC2=C(Cl)C(=O)c3ccccc3C2=O)c1` [iQFerr09, 2-(3-acetylanilino)-3-chloro-1,4-naphtoquinone], for which, in data set [1] (setting [3]), the IC50 was 63 nM. Besides, in data set [1], the cellular efficacy/toxicity window was 13-fold. Moreover, the CC50 at 18 h in data set [2] (setting [4]) amounted to 0.81 µM.
The like results for `CCc1ccc(NC2=C(Cl)C(=O)c3ccccc3C2=O)cc1` [iQFerr10, 2-chloro-3-(4-ethylanilino)-1,4-naphtoquinone] were, in that order, 8 nM, 105-fold and 0.844 µM.
In the same order, the values of `O=C1C(Cl)=C(Nc2ccc(O)cc2)C(=O)c2ccccc21` [iQFerr11, 2-chloro-3-(4-hydroxy-phenylamino)-1,4-naphtoquinone] are 6 nM, 48-fold and 0.293 µM.
In the same order, the values of `COc1ccc(NC2=C(Cl)C(=O)c3ccccc3C2=O)cc1` [iQFerr12, 2-chloro-3-(4-methoxyanilino)-1,4-naphtoquinone] are 6 nM, 586-fold and 3.52 µM.
In the case of `Cc1ccc(NC2=C(Cl)C(=O)c3ccccc3C2=O)cc1` [iQFerr13, 2-chloro-3-(4-methylanilino)-1,4-naphtoquinone], in data set [1] (setting [3]), the IC50 came out at 3 nM. In addition, the cellular efficacy/toxicity window in data set [1] was 126-fold. Also, the CC50 at 18 h in data set [2] (setting [4]) was 0.38 µM.
The like results for `O=C(O)CCCNC1=C(Cl)C(=O)c2ccccc2C1=O` [iQFerr15, 4-[(3-chloro-1,4-dioxo-1,4-dihydronaphthalen-2-yl)amino]butanoic acid] were, in that order, 1360 nM, 159-fold and 215 µM.
The like results for `O=C1C(Cl)=C(Nc2ccccc2)C(=O)c2ccccc21` [iQFerr16, 2-anilino-3-chloro-1,4-naphtoquinone] were, in that order, 4.5 nM, 62-fold and 0.279 µM.
In the same order, the values of `O=C1C(Cl)=C(Nc2ccc(F)cc2)C(=O)c2ccccc21` [iQFerr17, 2-chloro-3-(4-fluoroanilino)-1,4-naphtoquinone] are 6.1 nM, 65-fold and 0.397 µM.
For `O=C(O)c1ccc(NC2=C(Cl)C(=O)c3ccccc3C2=O)cc1` [iQFerr18, 4-[(3-chloro-1,4-dioxo-1,4-dihydronaphthalen-2-yl)amino]benzoic acid], the IC50 in data set [1] (setting [3]) was determined as 94.1 nM. Also, the cellular efficacy/toxicity window in data set [1] is on record as 27-fold. Also, the CC50 at 18 h in data set [2] (setting [4]) came out at 2.55 µM.
The like results for `CN(C)c1ccc(NC2=CC(=O)c3ccccc3C2=O)cc1` [iQFerr19, 2-[4-(dimethylamino)-anilino]-1,4-naphtoquinone] were, in that order, 32.2 nM, 182-fold and 5.85 µM.
In the same order, the values of `CCOc1ccc(NC2=CC(=O)c3ccccc3C2=O)cc1` [iQFerr21, 2-(4-ethoxyanilino)-1,4-naphtoquinone] are 43 nM, 199-fold and 8.57 µM.
In the same order, the values of `Cc1ccc(NC2=CC(=O)c3ccccc3C2=O)cc1` [iQFerr22, 2-(4-methylanilino)-1,4-naphtoquinone] are 15.6 nM, 354-fold and 5.5 µM.
Turning to `O=C(O)c1ccccc1NC1=CC(=O)c2c(O)cccc2C1=O` [iQFerr23], in data set [1] (setting [3]), the IC50 stood at 3480 nM. In data set [1], the cellular efficacy/toxicity window was 5-fold. Besides, in data set [2] (setting [4]), the CC50 at 18 h was 16.4 µM.
With `O=C1c2ccccc2C(=O)c2c1c(-c1ccccc1)nn2-c1ccccc1` [iQFerr24, 1,3-diphenyl-1H-benzo-f-indazole-4,9-dione], the IC50 in data set [1] (setting [3]) was over 100000 nM.
With `Cc1ccc(NC2=CC(=O)C=CC2=O)c(C)c1` [iQFerr25, 2-(2,4-dimethylanilino)-benzo-1,4-quinone], in data set [1] (setting [3]), the IC50 turned out to be 176 nM. The cellular efficacy/toxicity window in data set [1] is on record as 5-fold. Also, the CC50 at 18 h in data set [2] (setting [4]) turned out to be 0.759 µM.
The like results for `CCOc1ccc(NC2=CC(=O)C=CC2=O)cc1` [iQFerr27, 2-(4-ethoxyanilino)-benzo-1,4-quinone] were, in that order, 493 nM, 4-fold and 2.16 µM.
In the same order, the values of `O=C1C=C(Cc2ccc(F)cc2)C(=O)c2ccccc21` [iQFerr28, 2-(4-fluorobenzyl)-1,4-naphtoquinone] are 32.4 nM, 45-fold and 1.45 µM.
In the case of `Cc1ccc(CC2=CC(=O)c3ccccc3C2=O)cc1` [iQFerr30, 2-(4-methylbenzyl)-1,4-naphtoquinone], in data set [1] (setting [3]), the IC50 was found to be 38.4 nM. The cellular efficacy/toxicity window in data set [1] was 132-fold. Moreover, the CC50 at 18 h in data set [2] (setting [4]) amounted to 5.06 µM.
The like results for `COc1ccc(CC2=CC(=O)c3ccccc3C2=O)cc1` [iQFerr31, 2-(4-methoxybenzyl)-1,4-naphtoquinone] were, in that order, 1060 nM, 8-fold and 8.7 µM.
As for `Cc1ccc(C(C2=C(O)C(=O)c3ccccc3C2=O)c2ccccc2)cc1` (stereo not shown) [iQFerr32, 2-hydroxy-3-[(4-methylphenyl)phenyl-methyl]-1,4-naphtoquinone], the IC50 in data set [1] (setting [3]) is 39800 nM. Also, in data set [2] (setting [4]), the CC50 at 18 h was determined as 34.2 µM.
Take `CN(C)c1ccc(C(C2=C(O)C(=O)c3ccccc3C2=O)c2ccccc2)cc1` (stereo not shown) [iQFerr33, 2-[(4-dimethylamino-phenyl)phenylmethyl]-3-hydroxy-1,4-naphtoquinone]: the IC50 in data set [1] (setting [3]) was determined as 7580 nM. Moreover, in data set [1], the cellular efficacy/toxicity window is listed as 9-fold. Besides, the CC50 at 18 h in data set [2] (setting [4]) stood at 71.9 µM.
As to `O=C1C(O)=C(C(c2ccccc2)c2ccc(F)cc2)C(=O)c2ccccc21` (stereo not shown) [iQFerr34, 2-[(4-fluorophenyl)-phenylmethyl]-3-hydroxy 1,4-naphtoquinone], the IC50 in data set [1] (setting [5]) turned out to be 71400 nM. For the same compound, in data set [2] (setting [4]), the CC50 at 18 h is 35 µM.
For the compound `CC(=O)Nc1ccc(NC2=C(Cl)C(=O)c3ccccc3C2=O)cc1` [iQFerr36, N-{4-[(3-chloro-1,4-dioxo-1,4-dihydronaphthalen-2 yl)amino]phenyl} acetamide], in data set [1] (setting [3]), the IC50 was determined as 7.36 nM. In addition, the cellular efficacy/toxicity window in data set [1] is recorded as 77-fold. For the same compound, the CC50 at 18 h in data set [2] (setting [4]) came to 0.564 µM.
On to `Cc1ccc(NC2=CC(=O)c3ccccc3C2=O)c(C)c1` [iQFerr37, 2-[(2,4-dimethylphenyl)amino]-1,4-dihydronaphthalene-1,4-dione], for which, in data set [1] (setting [3]), the IC50 amounted to 15.4 nM. Also, the cellular efficacy/toxicity window in data set [1] is given as 3162-fold. The CC50 at 18 h in data set [2] (setting [4]) is 48.8 µM.
On to `Cc1ccc(N(CCCC(N)=O)C2=CC(=O)c3ccccc3C2=O)c(C)c1` [iQFerr40, 4-[(2,4-dimethylphenyl)(1,4-dioxo-1,4-dihydronaphthalen-2-yl)amino]butanamide], for which the IC50 in data set [1] (setting [3]) amounted to 189 nM. Besides, in data set [1], the cellular efficacy/toxicity window is listed as 1,2-fold. Moreover, the CC50 at 18 h in data set [2] (setting [4]) stood at 0.23 µM.
The like results for `Cc1ccc(N(CCCC(=O)O)C2=CC(=O)c3ccccc3C2=O)c(C)c1` [iQFerr42, 4-[(2,4-dimethylphenyl)(1,4-dioxo-1,4-dihydronaphthalen-2-yl)amino]butanoic acid] were, in that order, 463 nM, 0,47-fold and 0.219 µM.
In the same order, the values of `CC1=C(Nc2ccc(C)cc2)C(=O)c2ccccc2C1=O` [iQFerr45, 2-methyl-3-[(4-methylphenyl)amino]-1,4-dihydronaphthalene-1,4-dione] are 1.56 nM, 25634-fold and 40 µM.
In the same order, the values of `CC(=O)Nc1ccc(N(CCCCCC(N)=O)C2=CC(=O)c3ccccc3C2=O)cc1` [iQFerr49, 6-[(1,4-dioxo-1,4-dihydronaphthalen-2-yl)(4-acetamidophenyl)amino] hexanamide] are 22.8 nM, 4895-fold and 112 µM.

The record behind these values is patent publication US20260283988A1, “FERROPTOSIS INHIBITORS” (priority 2023, published 2026).
